Laboratory results published in the supplement of paper PMC11061612.

How the values were obtained:
[1] = test system: BFTC-909 (Kidney Carcinoma); assay: Bliss excess, mean over the matrix (fraction); higher = more synergy
Outline: (§1)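 Bliss excess equals the observed combination effect minus the expected value EA + EB − EA·EB, where EA and EB are the effects of each agent alone. Combination Emax is the second-highest inhibition within the matrix. Inhibition was scaled from CellTiter-Glo 2.0 luminescence, with 0 set by vehicle wells and 1 by blank wells, after 72 hours of two-drug dosing of cells plated in 1536-well plates.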

[2] = test system: HuCCT1 (Biliary Tract Carcinoma); assay: as above
Outline: as §1

[3] = test system: SAS (Oral Cavity Carcinoma); assay: as above
Outline: as §1

[4] = test system: OE21 (Esophageal Squamous Cell Carcinoma); assay: as above
Outline: as §1

[5] = test system: NCI-H524 (Small Cell Lung Carcinoma); assay: as above
Outline: as §1

[6] = test system: NCI-H209 (Small Cell Lung Carcinoma); assay: combination Emax (second highest fraction inhibited in the dose matrix, 72 h); higher = more inhibition; extreme values may be limits of the assay
Outline: as §1

[7] = test system: LS-123 (Colorectal Carcinoma); assay: as above
Outline: as §1

[8] = test system: NUGC-4 (Gastric Carcinoma); assay: as above
Outline: as §1

[9] = test system: HuH-7 (Hepatocellular Carcinoma); assay: as above
Outline: as §1

A673 (Ewing's Sarcoma) = assay: as above
Outline: as §1

[10] = test system: KMRC-20 (Kidney Carcinoma); assay: as above
Outline: as §1

[11] = test system: KYAE-1 (Esophageal Adenocarcinoma); assay: as above
Outline: as §1

[12] = test system: ALL-PO (B-Lymphoblastic Leukemia); assay: as above
Outline: as §1

[13] = test system: HuCCT1 (Biliary Tract Carcinoma); assay: as above
Outline: as §1

[14] = test system: BE-13 (T-Lymphoblastic Leukemia); assay: as above
Outline: as §1

[15] = test system: NCI-H1568 (Lung Adenocarcinoma); assay: as above
Outline: as §1

[16] = test system: L-428 (Hodgkin's Lymphoma); assay: as above
Outline: as §1

LOXIMVI (Melanoma) = assay: as above
Outline: as §1

[17] = test system: OVCAR-5 (Ovarian Carcinoma); assay: as above
Outline: as §1

Row | SMILES | Bliss excess [1] | Bliss excess [2] | Bliss excess [3] | Bliss excess [4] | Bliss excess [5] | combination Emax [6] | combination Emax [7] | combination Emax [8] | combination Emax [9] | combination Emax (A673 (Ewing's Sarcoma)) | combination Emax [10] | combination Emax [11] | combination Emax [12] | combination Emax [13] | combination Emax [14] | combination Emax [15] | combination Emax [16] | combination Emax (LOXIMVI (Melanoma)) | combination Emax [17]
1 | COc1cccc2c1C(=O)c1c(O)c3c(c(O)c1C2=O)C[C@@](O)(C(=O)CO)C[C@@H]3O[C@H]1C[C@H](N)[C@H](O)[C@H](C)O1 [Doxorubicin] + Cc1cc2ncnn2cc1Nc1ncc2c(n1)n(C1CCOCC1)c(=O)n2C [AZD7648] (first compound max 1 µM, 7x7, partner max 10 µM) | 0.0402 | -0.0073 | 0.0996 | 0.0511 | 0.145 | 0.993 | 0.87 | 0.393 | 0.23 | 0.888 | 0.524 | 0.879 | 1 | 0.746 | 0.965 | 0.197 | 0.937 | 0.952 | 0.587
2 | C=CCn1c(=O)c2cnc(Nc3ccc(N4CCN(C)CC4)cc3)nc2n1-c1cccc(C(C)(C)O)n1 [AZD1775] + C[C@@H]1COCCN1C2=NC(=NC(=C2)C3(CC3)[S@](=N)(=O)C)C4=C5C=CNC5=NC=C4 [AZD6738] (first compound max 1 µM, partner max 10 µM) | 0.0858 | -0.0205 | 0.0138 | -0.0207 | 0.051 | 0.944 | 0.892 | 0.593 | 0.487 | 0.907 | 0.763 | 0.588 | 0.977 | 0.861 | 1 | 0.487 | 0.891 | 0.883 | 0.782
3 | COc1cccc(OCCCN)c1-c1cc(Nc2cnc(C#N)cn2)n[nH]1 [Prexasertib] + C=CCn1c(=O)c2cnc(Nc3ccc(N4CCN(C)CC4)cc3)nc2n1-c1cccc(C(C)(C)O)n1 [AZD1775] (first compound max 1 µM, partner max 1 µM) | 0.11 | 0.0261 | 0.0405 | -0.0663 | 0.053 | 0.988 | 0.828 | 0.555 | 0.438 | 0.946 | 0.885 | 0.795 | 0.989 | 0.827 | 1 | 0.563 | 0.955 | 0.859 | 0.838
4 | CN(C)CCCOc1ccc(-c2ccc3ncc4c(c3c2)n(C2CCOCC2)c(=O)n4C)cn1 [AZD0156] + C=CCn1c(=O)c2cnc(Nc3ccc(N4CCN(C)CC4)cc3)nc2n1-c1cccc(C(C)(C)O)n1 [AZD1775] (first compound max 1 µM, partner max 1 µM) | -0.0638 | -0.0382 | -0.0742 | 0.0083 | -0.0204 | 0.84 | 0.609 | 0.273 | 0.262 | 0.564 | 0.596 | 0.426 | 0.959 | 0.717 | 0.964 | 0.419 | 0.824 | 0.753 | 0.347
5 | COc1cccc(OCCCN)c1-c1cc(Nc2cnc(C#N)cn2)n[nH]1 [Prexasertib] + C[C@@H]1COCCN1C2=NC(=NC(=C2)C3(CC3)[S@](=N)(=O)C)C4=C5C=CNC5=NC=C4 [AZD6738] (first compound max 1 µM, 7x7, partner max 10 µM) | 0.0417 | -0.0108 | 0.0203 | 0.0084 | -0.0122 | 0.959 | 0.796 | 0.543 | 0.34 | 0.883 | 0.881 | 0.573 | 0.982 | 0.835 | 0.967 | 0.526 | 0.95 | 0.849 | 0.817
6 | COc1cccc(OCCCN)c1-c1cc(Nc2cnc(C#N)cn2)n[nH]1 [Prexasertib] + CN(C)CCCOc1ccc(-c2ccc3ncc4c(c3c2)n(C2CCOCC2)c(=O)n4C)cn1 [AZD0156] (first compound max 1 µM, 7x7, partner max 1 µM) | -0.0397 | -0.0357 | 0.0109 | -0.0949 | -0.0435 | 0.94 | 0.752 | 0.49 | 0.347 | 0.905 | 0.924 | 0.594 | 0.979 | 0.819 | 0.965 | 0.538 | 0.958 | 0.862 | 0.838
7 | C=CCn1c(=O)c2cnc(Nc3ccc(N4CCN(C)CC4)cc3)nc2n1-c1cccc(C(C)(C)O)n1 [AZD1775] + O=C(c1cc(Cc2n[nH]c(=O)c3ccccc23)ccc1F)N1CCN(C(=O)C2CC2)CC1 [Olaparib] (first compound max 1 µM, partner max 10 µM) | 0.0075 | -0.0149 | -0.0939 | -0.0216 | 0.0424 | 0.922 | 0.644 | 0.302 | 0.304 | 0.822 | 0.567 | 0.468 | 0.951 | 0.818 | 0.984 | 0.422 | 0.842 | 0.638 | 0.447
8 | C[C@@H]1COCCN1c1cc(C2([S@](C)(=N)=O)CC2)nc(-c2ccnc3[nH]ccc23)n1 [AZD6738] + O=C(c1cc(Cc2n[nH]c(=O)c3ccccc23)ccc1F)N1CCN(C(=O)C2CC2)CC1 [Olaparib] (first compound max 10 µM, 7x7, partner max 10 µM) | 0.0337 | -0.0264 | -0.0361 | -0.007 | 0.0196 | 0.94 | 0.764 | 0.551 | 0.357 | 0.89 | 0.542 | 0.139 | 0.955 | 0.784 | 0.702 | 0.416 | 0.728 | 0.978 | 0.515
9 | CN(C)CCCOc1ccc(-c2ccc3ncc4c(c3c2)n(C2CCOCC2)c(=O)n4C)cn1 [AZD0156] + C[C@@H]1COCCN1C2=NC(=NC(=C2)C3(CC3)[S@](=N)(=O)C)C4=C5C=CNC5=NC=C4 [AZD6738] (first compound max 1 µM, 7x7, partner max 10 µM) | 0.027 | 0.0297 | -0.0363 | 0.0015 | 0.0229 | 0.854 | 0.644 | 0.639 | 0.325 | 0.907 | 0.65 | 0.0979 | 0.922 | 0.796 | 0.723 | 0.49 | 0.777 | 0.908 | 0.756
10 | CCN(CCO)CCCOc1ccc2c(Nc3cc(CC(=O)Nc4cccc(F)c4)[nH]n3)ncnc2c1 [AZD2811] + O=C(c1cc(Cc2n[nH]c(=O)c3ccccc23)ccc1F)N1CCN(C(=O)C2CC2)CC1 [Olaparib] (first compound max 1 µM, 7x7, partner max 10 µM) | 0.0468 | -0.0187 | 0.0114 | 0.0043 | -0.0602 | 0.971 | 0.301 | 0.21 | 0.174 | 0.841 | 0.24 | 0.208 | 0.975 | 0.25 | 0.824 | 0.164 | 0.348 | 0.336 | 0.184
11 | COc1cccc(OCCCN)c1-c1cc(Nc2cnc(C#N)cn2)n[nH]1 [Prexasertib] + O=C(c1cc(Cc2n[nH]c(=O)c3ccccc23)ccc1F)N1CCN(C(=O)C2CC2)CC1 [Olaparib] (first compound max 1 µM, 7x7, partner max 10 µM) | -0.0109 | -0.0824 | -0.0104 | -0.0499 | -0.0666 | 0.965 | 0.771 | 0.415 | 0.3 | 0.923 | 0.893 | 0.56 | 0.979 | 0.844 | 0.978 | 0.481 | 0.953 | 0.788 | 0.693
12 | CN(C)CCCOc1ccc(-c2ccc3ncc4c(c3c2)n(C2CCOCC2)c(=O)n4C)cn1 [AZD0156] + CCN(CCO)CCCOc1ccc2c(Nc3cc(CC(=O)Nc4cccc(F)c4)[nH]n3)ncnc2c1 [AZD2811] (first compound max 1 µM, 7x7, partner max 1 µM) | -0.0015 | -0.0274 | -0.0391 | -0.0048 | -0.0083 | 0.552 | 0.161 | 0.0855 | 0.0893 | 0.75 | 0.128 | 0.103 | 0.977 | 0.137 | 0.674 | 0.131 | 0.187 | 0.4 | 0.137
13 | CCN(CCO)CCCOc1ccc2c(Nc3cc(CC(=O)Nc4cccc(F)c4)[nH]n3)ncnc2c1 [AZD2811] + C[C@@H]1COCCN1C2=NC(=NC(=C2)C3(CC3)[S@](=N)(=O)C)C4=C5C=CNC5=NC=C4 [AZD6738] (first compound max 1 µM, 7x7, partner max 10 µM) | -0.0231 | -0.0767 | -0.0354 | -0.142 | -0.0399 | 0.913 | 0.632 | 0.547 | 0.293 | 0.852 | 0.596 | 0.122 | 0.979 | 0.773 | 0.732 | 0.397 | 0.78 | 0.746 | 0.698
14 | CCN(CCO)CCCOc1ccc2c(Nc3cc(CC(=O)Nc4cccc(F)c4)[nH]n3)ncnc2c1 [AZD2811] + C=CCn1c(=O)c2cnc(Nc3ccc(N4CCN(C)CC4)cc3)nc2n1-c1cccc(C(C)(C)O)n1 [AZD1775] (first compound max 1 µM, partner max 1 µM) | 0.0293 | -0.0344 | -0.0526 | -0.0577 | -0.0253 | 0.879 | 0.68 | 0.227 | 0.132 | 0.708 | 0.6 | 0.395 | 0.981 | 0.739 | 0.982 | 0.429 | 0.824 | 0.959 | 0.273
